target: T1, wildtype HIV-1 protease (Human immunodeficiency virus type 1 group M subtype B, UniProt P04585); experiment: Assay for inhibition of microbial expressed HIV protease (Pepcleav); assay type: biochemical; conditions: wild type HIV-1 protease 20 pM, peptide substrate 400 micromolar, pH 5.5; mean of at least two independent experiments
T1 construct: preincubated with the HIV-1 protease (wild type) enzyme in assay buffer; made in house; host or cells: Escherichia coli
Method: Assay for Inhibition of Microbial Expressed HIV Protease (“Pepcleav”)
Studies of the inhibition of the wildtype HIV-1 protease (which was expressed in Escherichia coli) were carried out with a peptide substrate [Val-Ser-Gln-Asn-(βnaphtyl)Ala-Pro-Ile-Val (SEQ ID NO 1)]. The inhibitor was first preincubated with the HIV-1 protease (wild type) enzyme in assay buffer (50 mM sodium acetate, pH 5.5, 100 mM NaCl, and 0.1% BSA) for 30 minutes at room temperature. Substrate was added to 400 micromolar in a total volume of 20 microliters containing 20 picomolar HIV-1 protease (final) and the reaction is incubated for 1 hour at 30° C. The reaction was quenched with the addition of formic acid and indinavir to 0.012% and 150 nM final concentrations, respectively. Product formation was determined after separation of product and substrate on a Zorbax Eclipse XDB-C18 column connected to an API 4000 mass spectrometer (Applied Biosystems) with multiple reaction monitoring (transitions were 644.5/428.9 and 615.4/422.2 (M1/M3) for product and indinavir respectively). The extent of inhibition of the reaction was determined from the peak area of the products.

Question: Which IC50 does the source give for `COC(=O)N[C@H](C(=O)Nc1ccccc1CC[C@@H]1CNC[C@@H](COc2ccc(S(C)(=O)=O)cc2)O1)C(c1ccccc1)c1ccccc1` [Example 16, methyl N-[(1S)-1-benzhydryl-2-[[2-[2-[(2R,6S)-6-[(4-methylsulfonylphenoxy)methyl]morpholin-2-yl]ethyl]phenyl]amino]-2-oxo-ethyl]carbamate] here?
Answer: Its IC50 is 0.019 µM.

Question: For `COC(=O)N[C@H](C(=O)Nc1ccccc1CC[C@@H]1CNC[C@@H](CSc2ccc(S(C)(=O)=O)cc2)O1)C(c1ccccc1)c1ccccc1` [Example 21, methyl N-[(1S)-1-benzhydryl-2-[[2-[2-[(2R,6S)-6-[(4-methylsulfonylphenyl)sulfanyl-methyl]morpholin-2-yl]ethyl]phenyl]amino]-2-oxo-ethyl]carbamate], which IC50 is on record?
Answer: The IC50 was 0.00086 µM.

Question: How did the IC50 turn out when `COC(=O)N[C@H](C(=O)Nc1ccccc1CC[C@H]1CNC[C@@H](CS(=O)(=O)c2ccc(Cl)cc2)O1)C(c1ccccc1)c1ccccc1` [Example 109, N-(2-{2-[(2S,6S)-6-{[(4-chlorophenyl)sulfonyl]methyl}morpholin-2-yl]ethyl}phenyl)-Nα-(methoxycarbonyl)-β-phenyl-L-phenylalaninamide] was run?
Answer: Its IC50 is 0.77 µM.

Question: With `COC(=O)N[C@H](C(=O)Nc1cccc(F)c1CC[C@@H]1CNC[C@@H](CSc2ccc(Cl)cc2)O1)C(c1ccccc1)c1ccccc1` [Example 73, N-(2-{2-[(2R,6S)-6-{[(4-chlorophenyl)sulfanyl]methyl}morpholin-2-yl]ethyl}-3-fluorophenyl)-Nα-(methoxycarbonyl)-β-phenyl-L-phenylalaninamide] as the compound, how does the IC50 read?
Answer: Its IC50 is 0.00089 µM.

Question: How did the IC50 turn out when `COC(=O)N[C@H](C(=O)Nc1ccccc1CC[C@@H]1CNC[C@@H](COc2ccc(C(F)(F)F)cc2)O1)C(c1ccccc1)c1ccccc1` [Example 44, N-α-(methoxycarbonyl)-β-phenyl-N-(2-{2-[(2R,6S)-6-{[4-(trifluoromethyl)phenoxy]methyl}morpholin-2-yl]ethyl}phenyl)-L-phenylalaninamide] was run?
Answer: The IC50 was 0.014 µM.

Question: For `COC(=O)N[C@H](C(=O)Nc1ccccc1CC[C@@H]1CNC[C@@H](CSc2ccc(Cl)cc2)O1)[C@H](c1ccccc1)c1ccncc1` [Example 69, (βR)-N-(2-{2-[(2R,6S)-6-{[(4-chlorophenyl)sulfanyl]methyl}morpholin-2-yl]ethyl}phenyl)-Nα-(methoxycarbonyl)-β-pyridin-4-yl-L-phenylalaninamide], which IC50 is on record?
Answer: The IC50 was 0.0003 µM.

Question: `COC(=O)N[C@H](C(=O)Nc1ccccc1CC[C@@H]1CNC[C@@H](COc2ccc(C#N)cc2)O1)C(c1ccccc1)c1ccccc1` [Example 17, methyl N-[(1S)-1-benzhydryl-2-[[2-[2-[(2R,6S)-6-[(4-cyanophenoxy)methyl]morpholin-2-yl]ethyl]phenyl]amino]-2-oxo-ethyl]carbamate] was tested. Which IC50 did it give?
Answer: Its IC50 is 0.021 µM.

Question: `COC(=O)N[C@H](C(=O)Nc1ccccc1CC[C@@H]1CNC[C@@H](COc2cccc(F)c2)O1)C(c1ccccc1)c1ccccc1` [Example 47, N-[2-(2-{(2R,6S)-6-[(3-fluorophenoxy)methyl]morpholin-2-yl}ethyl)phenyl]-Nα-(methoxycarbonyl)-β-phenyl-L-phenylalaninamide] was tested. Which IC50 did it give?
Answer: The IC50 was 0.012 µM.

Question: How did the IC50 turn out when `O=C(Nc1c(CC[C@@H]2CNC[C@@H](CSc3ccc(Cl)cc3)O2)cc[nH]c1=O)[C@@H](NCC(F)(F)F)C(c1ccccc1)c1ccccc1` [Example 89, N-(4-{2-[(2R,6S)-6-{[(4-chlorophenyl)sulfanyl]methyl}morpholin-2-yl]ethyl}-2-oxo-1,2-dihydropyridin-3-yl)-β-phenyl-Nα-(2,2,2-trifluoroethyl)-L-phenylalaninamide] was run?
Answer: The IC50 was 0.0123 µM.

Question: Which IC50 does the source give for `COC(=O)N[C@H](C(=O)Nc1ccccc1CC[C@@H]1CNC[C@@H](COc2ccc(Br)cc2[N+](=O)[O-])O1)C(c1ccccc1)c1ccccc1` [Example 10, methyl N-[(1S)-1-benzhydryl-2-[[2-[2-[(2R,6S)-6-[(4-bromo-2-nitro-phenoxy)methyl]morpholin-2-yl]ethyl]phenyl]amino]-2-oxo-ethyl]carbamate] here?
Answer: The IC50 was 0.12 µM.

Question: With `COC(=O)N[C@H](C(=O)Nc1ccccc1CC[C@@H]1CNC[C@@H](CSc2ncnc3[nH]ncc23)O1)C(c1ccccc1)c1ccccc1` [Example 35, methyl N-[(1S)-1-benzhydryl-2-oxo-2-[[2-[2-[(2R,6S)-6-(1H-pyrazolo[3,4-d]pyrimidin-4-ylsulfanylmethyl)morpholin-2-yl]ethyl]phenyl]amino]ethyl] carbamate] as the compound, how does the IC50 read?
Answer: Its IC50 is 0.0021 µM.

Question: `COC(=O)N[C@H](C(=O)Nc1cncnc1CC[C@@H]1CNC[C@@H](COc2ccc(C#N)cc2)O1)C(c1ccccc1)c1ccccc1` [Example 79, N-[4-(2-{(2R,6S)-6-[(4-cyanophenoxy)methyl]morpholin-2-yl}ethyl)pyrimidin-5-yl]-Nα-(methoxycarbonyl)-β-phenyl-L-phenylalaninamide] was tested. Which IC50 did it give?
Answer: The IC50 was 0.12 µM.

Question: `COC(=O)N[C@H](C(=O)Nc1ccccc1C[C@H]1CNC[C@@H](COc2ccc(C#N)cc2)O1)C(c1ccccc1)c1ccccc1` [Example 117, N-[2-({(2S,6S)-6-[(4-cyanophenoxy)methyl]morpholin-2-yl}methyl)phenyl]-Nα-(methoxycarbonyl)-β-phenyl-L-phenylalaninamide] was tested. Which IC50 did it give?
Answer: The IC50 was 0.18 µM.

Question: `COC(=O)N[C@H](C(=O)Nc1ccccc1CC[C@@H]1CNC[C@@H](COc2cccc3[nH]ccc23)O1)C(c1ccccc1)c1ccccc1` [Example 30, methyl N-[(1S)-1-benzhydryl-2-[[2-[2-[(2R,6S)-6-(1H-indol-4-yloxymethyl)morpholin-2-yl]ethyl]phenyl]amino]-2-oxo-ethyl]carbamate] was tested. Which IC50 did it give?
Answer: Its IC50 is 0.13 µM.

Question: With `COC(=O)N[C@H](C(=O)Nc1ccc(F)cc1CC[C@@H]1CNC[C@@H](COc2cccc(C#N)c2)O1)C(c1ccccc1)c1ccccc1` [Example 74, N-[2-(2-{(2R,6S)-6-[(3-cyanophenoxy)methyl]morpholin-2-yl}ethyl)-4-fluorophenyl]-Nα-(methoxycarbonyl)-β-phenyl-L-phenylalaninamide] as the compound, how does the IC50 read?
Answer: The IC50 was 0.039 µM.

Question: With `COC(=O)N[C@H](C(=O)Nc1ccccc1CC[C@@H]1CNC[C@@H](COc2ccc(-c3ccccc3)cc2)O1)C(c1ccccc1)c1ccccc1` [Example 11, methyl N-[(1S)-1-benzhydryl-2-oxo-2-[[2-[2-[(2R,6S)-6-[(4-phenylphenoxy)methyl]morpholin-2-yl]ethyl]phenyl]amino]ethyl] carbamate] as the compound, how does the IC50 read?
Answer: The IC50 was 0.0066 µM.

Question: How did the IC50 turn out when `COC(=O)N[C@H](C(=O)Nc1ccccc1CC[C@@H]1CNC[C@@H](COCc2ccc(Cl)cc2)O1)C(c1ccccc1)c1ccccc1` [Example 59, methyl N-[(1S)-1-benzhydryl-2-[[2-[2-[(2R,6S)-6-[(4-chlorophenyl)methoxymethyl]morpholin-2-yl]ethyl]phenyl]amino]-2-oxo-ethyl]carbamate] was run?
Answer: The IC50 was 0.062 µM.

Question: Which IC50 does the source give for `N[C@H](C(=O)Nc1cncc(F)c1CC[C@@H]1CNCC2(CCCCC2)O1)C(c1ccccc1)c1ccccc1` [Example 133, N-(5-fluoro-4-{2-[(2R)-1-oxa-4-azaspiro[5.5]undec-2-yl]ethyl}pyridin-3-yl)-β-phenyl-L-phenylalaninamide] here?
Answer: Its IC50 is 0.29 µM.

Question: For `COC(=O)N[C@H](C(=O)Nc1cccc(F)c1CC[C@@H]1CNC[C@@H](COc2ccc(C#N)cc2)O1)C(c1ccccc1)c1ccccc1` [Example 71, N-[2-(2-{(2R,6S)-6-[(4-cyanophenoxy)methyl]morpholin-2-yl}ethyl)-3-fluorophenyl]-Nα-(methoxycarbonyl)-β-phenyl-L-phenylalaninamide], which IC50 is on record?
Answer: The IC50 was 0.0074 µM.

Question: With `COC(=O)N[C@H](C(=O)Nc1ccccc1CC[C@@H]1CNC[C@@H](CSc2ccc(Br)cc2)O1)C(c1ccccc1)c1ccccc1` [Example 8, methyl N-[(1S)-1-benzhydryl-2-[[2-[2-[(2R,6S)-6-[(4-bromophenyl)sulfanylmethyl]morpholin-2-yl]ethyl]phenyl]amino]-2-oxo-ethyl]carbamate] as the compound, how does the IC50 read?
Answer: Its IC50 is 0.0021 µM.

Question: How did the IC50 turn out when `COC(=O)N[C@H](C(=O)Nc1ccccc1CC[C@@H]1CNC[C@@H](COc2ccc(F)cc2)O1)C(c1ccccc1)c1ccccc1` [Example 46, N-[2-(2-{(2R,6S)-6-[(4-fluorophenoxy)methyl]morpholin-2-yl}ethyl)phenyl]-Nα-(methoxycarbonyl)-β-phenyl-L-phenylalaninamide] was run?
Answer: The IC50 was 0.023 µM.

Question: For `N[C@H](C(=O)Nc1cncc(F)c1CC[C@@H]1CNC[C@@H](CSc2ccc(Cl)cc2)O1)C(c1ccc(F)cc1)c1ccc(F)cc1` [Example 104, (S)-2-amino-N-(4-(2-((2R,6S)-6-(((4-chlorophenyl)thio)methyl)morpholin-2-yl)ethyl)-5-fluoropyridin-3-yl)-3,3-bis(4-fluorophenyl)propanamide], which IC50 is on record?
Answer: Its IC50 is 0.00028 µM.

Question: With `N[C@H](C(=O)Nc1cncc(F)c1CC[C@@H]1CNC[C@@H](COC(=O)N2CCOCC2)O1)C(c1ccc(F)cc1)c1ccc(F)cc1` [Example 105, {(2S,6R)-6-[2-(3-fluoro-5-{[4-fluoro-β-(4-fluorophenyl)-L-phenylalanyl]amino}pyridin-4-yl)ethyl]morpholin-2-yl}methyl morpholine-4-carboxylate] as the compound, how does the IC50 read?
Answer: The IC50 was 0.029 µM.

Question: How did the IC50 turn out when `COC(=O)N[C@H](C(=O)Nc1ccccc1CC[C@@H]1CNC[C@@H](COc2cccnc2C)O1)C(c1ccccc1)c1ccccc1` [Example 50, N-α-(methoxycarbonyl)-N-(2-{2-[(2R,6S)-6-{[(2-methylpyridin-3-yl)oxy]methyl}morpholin-2-yl]ethyl}phenyl)-β-phenyl-L-phenylalaninamide] was run?
Answer: The IC50 was 0.13 µM.
